According to publication PMC12394665, “Structural and biochemical basis for activity of Aspergillus nidulans α-1,3-glucanases from glycoside hydrolase family 71” (Communications Biology, 2025):

What was measured:
[1] = molecular target: T1, AnGH71C (Aspergillus nidulans, UniProt G5EB58); test: X-ray crystal structure (soak), […] Å; settings: crystal soaked 2 min with saturating ligand; two glucose molecules in the binding cleft per protein molecule
T1 construct: gene ANIA_07349; putative signal peptide removed; N-terminal His6 tag, modified pET-28a with TEV site; recombinant E. coli BL21 (DE3); IMAC and gel filtration
T1 sequence (G5EB58 23-431): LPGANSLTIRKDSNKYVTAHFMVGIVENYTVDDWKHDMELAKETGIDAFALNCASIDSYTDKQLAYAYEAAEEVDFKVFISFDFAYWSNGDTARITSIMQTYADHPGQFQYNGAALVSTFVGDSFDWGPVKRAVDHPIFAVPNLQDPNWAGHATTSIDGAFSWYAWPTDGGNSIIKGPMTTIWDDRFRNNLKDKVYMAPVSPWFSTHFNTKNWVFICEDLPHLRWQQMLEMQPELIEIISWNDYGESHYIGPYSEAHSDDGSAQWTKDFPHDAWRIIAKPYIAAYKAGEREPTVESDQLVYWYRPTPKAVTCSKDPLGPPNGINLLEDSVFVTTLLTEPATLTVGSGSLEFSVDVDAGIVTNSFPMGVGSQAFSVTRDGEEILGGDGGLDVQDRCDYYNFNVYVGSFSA

[2] = molecular target: T1, AnGH71C; test: X-ray crystal structure (soak), […] Å; assay type: binding

In the case of `OC[C@H]1OC(O)[C@H](O)[C@@H](O)[C@@H]1O` (stereo partly drawn) [glucose], the “X-ray crystal structure (soak), 1.37 Å” value [1] is reported as “glucose-soaked crystals each contain two glucose molecules located in the same position”.
In the case of `OC[C@H]1O[C@H](O[C@@H]2[C@@H](O)[C@@H](O[C@@H]3[C@@H](O)[C@@H](O[C@H]4[C@H](O)[C@@H](CO)OC(O)[C@@H]4O)O[C@H](CO)[C@H]3O)O[C@H](CO)[C@H]2O)[C@H](O)[C@@H](O)[C@@H]1O` (stereo partly drawn) [nigerotetraose], the “X-ray crystal structure (soak), 1.92 Å” value ([2]; crystal soaked 2 min with saturating ligand, active-site cleft, -4 to -1 subsites among others, α- and β-anomers) is reported as “Complexes of AnGH71C with glucose and nigerotriose/nigerotetraose were obtained by soaking crystals with ligand”.
For `OC[C@H]1O[C@H](O[C@@H]2[C@@H](O)[C@@H](O[C@H]3[C@H](O)[C@@H](CO)OC(O)[C@@H]3O)O[C@H](CO)[C@H]2O)[C@H](O)[C@@H](O)[C@@H]1O` (stereo partly drawn) [nigerotriose], the “X-ray crystal structure (soak), 1.92 Å” value ([2]; crystal soaked with nigerotetraose, nigerotriose in active-site cleft subsites, one extra on cleft surface in chain B) was “four protein molecules of the nigerotetraose-soaked crystals contain distinct combinations of nigerotriose and nigerotetraose”.
